Converted amounts (≈) assume the structure as drawn. Where two headings read alike, the source gives them in different places.
How the values were obtained:
[1] = test system: M. tuberculosis Erdman in J774A.1 cells; test: macrophage assay, intracellular activity; type: cell-based, Mycobacterium tuberculosis; conditions: for Fold(log) reduction: decrease of log10 CFU between D7 and treatment group, J774A.1, 0.02 μM (Fig. 2 legend: 0.02 μg/mL)
Description: As described previously, J774A.1 cells were grown in 75-cm2 cell culture flasks in 10% FBS in Dulbecco’s modified Eagle’s medium (DMEM) until confluency. The cells were detached using a cell scraper, and then centrifuged at 200 g for 5 min at room temperature. The cells were incubated at 37 °C under 5% CO2 for 16 h after distributing into 24-well plates containing coverslips. M. tuberculosis Erdman (ATCC 35801) were diluted to a final concentration of 1 × 10^5 to 3 × 10^5 CFU/mL with DMEM after thawing and sonicating from frozen cultures. And 500 ul of the dilution was dispensed to each well of a new 24-well plate. Followed by, J774A.1 cells on coverslips were infected by incubation with M. tuberculosis Erdman at 37 °C for 2 h. Coverslips were then washed with HBSS and transferred to new 24-well plates. The Cultures were treated in triplicate with compounds at 0.02 μM containing DMEM and incubated at 37 °C under 5% CO2 for 16 h. At D 0 (for untreated controls) and after 7 days of incubation, macrophage cells were lysed by addition of 200 μL of 0.25% sodium dodecyl sulfate. The plates were incubated at 37 °C for 10 min, and 200 μL of DMEM was added. The lysate was sampled using a microtube and sonicated for 15 s. Then 1:1, 1:10, 1:100, and 1:1,000 dilutions were plated on 7H11 agar plates and CFU counts determined after 2 to 3 weeks of incubation at 37 °C.

[2] = test system: Mycobacterium tuberculosis H37Ra (ATCC 25177); test: microplate Alamar Blue assay (MABA), MIC, H37Ra; type: cell-based
Description: (§1) Compound MIC was conducted by ShangHai Chempartner Co., Ltd (Shanghai, China) using the microplate Alamar Blue assay (MABA) against Mycobacterium tuberculosis H37Ra (ATCC 25177). Cytotoxicity of tested compounds was assessed on Vero cells.

[3] = test system: Mycobacterium tuberculosis H37Rv; test: microplate Alamar blue assay (MABA), MIC; type: cell-based; conditions: replicating H37Rv
[4] = test system: Vero cells; test: cytotoxicity, MTT assay; type: cell-based; conditions: Chlorocebus sabaeus
Description: The compounds were examined for toxicity (IC50) using MTT assay. Briefly, cells (3 ~ 5 × 10^3 cells/well) were seeded in a 96-well plate. After 24 h incubation, the cells were treated with various concentrations of drugs for 24, 48, 72 h, respectively. Columns one and two in the assay plates contained-media +0.1% DMSO for a negative control ,Then, 20 μl of a 5 mg/mL MTT solution was added to each well, and the plates were incubated for an additional 2~4 h at 37 °C. The medium was subsequently discarded, and DMSO 150 μL was added to dissolve the formazan. Oscillate 15 min, the OD 570 was measured using a Spectra MAX M5 microplate spectrophotometer (Molecular Devices, CA, USA), and the IC50 values were calculated.
as §1

[5] = pharmacokinetic study in SD rats; type: in vivo; conditions: female, rat, plasma, SD rats
Description: All animal experiments have been approved by the Institutional Animal Care and Treatment Committee of Sichuan University in China and were carried out in accordance with the approved guidelines. SPF female SD rats weighing 180–220 g were used in the pharmacokinetic study. The rats were fasted overnight before dosing. Every treatment group contain 3 rats. Rats were dosed with SKLB-TB1001 or BTZ043 suspension at 5 mg/kg (i.v. and p.o.). Compounds were dissolved in 5% DMSO/10% Solutol HS15 in saline for intravenous injection and suspended in 0.5% CMC for oral administration. Blood was collected from the jugular vein of each animal at the following times after administration of drugs: 0.083, 0.25, 0.5, 1, 2, 4, 6, 8 and 24 h after a single i.v. dosing; and 0.25, 0.5, 1, 2, 4, 6, 8 and 24 h after a single oral dosing. All blood samples were centrifuged at 3000 r/min for 10 min to obtain serum which was then stored at −20 °C. 150 μL of the serum was added to 500 μL of acetonitrile and the mixture was centrifuged at 13000 r/min for 10 min to remove protein. The supernatant was dried and dissolve in 100 μL of acetonitrile, the solution was centrifuged at 13000 r/min for 10 min. The supernatant was moved to a sample bottle for HPLC analysis. Total area under the concentration time curve (AUC), the elimination half-time (t1/2), the peak concentration (Cmax) and the time to reach peak concentration (Tmax) of samples were determined directly from the experimental data using WinNonlin V6.2.1.

[6] = test system: MDR1; test: bi-directional permeability across MDR1-MDCKII cell monolayer; type: in vitro ADME; conditions: dog, MDCK-MDR1; MDR1-MDCKII
Description: (§2) The In vitro ADME/T assays were conducted at WuXi AppTec Co. Ltd.(Shanghai). ClogP was calculated with ChemDraw Ultra 14.0. In the study of bi-directional permeability across MDR1-MDCKII cell monolayer, permeability was correlated with the apparent permeability coefficient Papp (cm/s), which was interpreted as follows: Low permeability( Papp ≤ 1.0×10^-6 cm/s), Moderate permeability(1.0×10^-6 < Papp < 5.5×10^-6 cm/s) or High permeability( Papp ≥ 5.5×10^-6 cm/s). ^aaqueous solubility at room temperature.

[7] = target: CYP2C19 (Homo sapiens, UniProt P33261); test: CYP inhibition; type: in vitro ADME
Sequence of CYP2C19 (P33261 whole entry): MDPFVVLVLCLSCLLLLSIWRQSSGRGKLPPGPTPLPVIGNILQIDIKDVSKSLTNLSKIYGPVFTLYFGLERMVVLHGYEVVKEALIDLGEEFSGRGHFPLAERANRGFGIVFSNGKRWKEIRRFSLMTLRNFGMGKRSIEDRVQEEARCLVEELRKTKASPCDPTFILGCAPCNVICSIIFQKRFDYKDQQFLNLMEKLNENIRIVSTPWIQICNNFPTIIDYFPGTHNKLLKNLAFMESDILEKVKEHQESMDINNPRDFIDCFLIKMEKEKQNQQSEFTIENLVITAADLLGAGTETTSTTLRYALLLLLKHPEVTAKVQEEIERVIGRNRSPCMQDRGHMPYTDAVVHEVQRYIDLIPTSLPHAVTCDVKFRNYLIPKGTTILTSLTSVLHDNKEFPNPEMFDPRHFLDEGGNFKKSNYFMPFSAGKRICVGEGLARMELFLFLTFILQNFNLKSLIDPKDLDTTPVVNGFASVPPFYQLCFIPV
Description: as §2

[8] = target: CYP2C9 (Homo sapiens, UniProt P11712); test: CYP inhibition; type: in vitro ADME
Sequence of CYP2C9 (P11712 whole entry): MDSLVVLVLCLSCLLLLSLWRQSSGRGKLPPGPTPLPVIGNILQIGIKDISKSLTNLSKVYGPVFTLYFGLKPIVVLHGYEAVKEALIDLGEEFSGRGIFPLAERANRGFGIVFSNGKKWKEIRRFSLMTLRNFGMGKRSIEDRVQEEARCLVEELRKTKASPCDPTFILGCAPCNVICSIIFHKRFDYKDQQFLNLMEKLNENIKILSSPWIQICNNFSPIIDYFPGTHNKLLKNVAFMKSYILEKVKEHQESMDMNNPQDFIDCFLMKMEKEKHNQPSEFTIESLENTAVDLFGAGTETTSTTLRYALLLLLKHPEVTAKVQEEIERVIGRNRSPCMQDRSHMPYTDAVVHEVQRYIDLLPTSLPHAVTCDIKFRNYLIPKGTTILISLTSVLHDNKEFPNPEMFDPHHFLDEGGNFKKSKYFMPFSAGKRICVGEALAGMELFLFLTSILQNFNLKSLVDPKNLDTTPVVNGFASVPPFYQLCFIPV
Description: as §2

[9] = target: CYP3A4 (Homo sapiens, UniProt P08684); test: CYP inhibition; type: in vitro ADME
Sequence of CYP3A4 (P08684 whole entry): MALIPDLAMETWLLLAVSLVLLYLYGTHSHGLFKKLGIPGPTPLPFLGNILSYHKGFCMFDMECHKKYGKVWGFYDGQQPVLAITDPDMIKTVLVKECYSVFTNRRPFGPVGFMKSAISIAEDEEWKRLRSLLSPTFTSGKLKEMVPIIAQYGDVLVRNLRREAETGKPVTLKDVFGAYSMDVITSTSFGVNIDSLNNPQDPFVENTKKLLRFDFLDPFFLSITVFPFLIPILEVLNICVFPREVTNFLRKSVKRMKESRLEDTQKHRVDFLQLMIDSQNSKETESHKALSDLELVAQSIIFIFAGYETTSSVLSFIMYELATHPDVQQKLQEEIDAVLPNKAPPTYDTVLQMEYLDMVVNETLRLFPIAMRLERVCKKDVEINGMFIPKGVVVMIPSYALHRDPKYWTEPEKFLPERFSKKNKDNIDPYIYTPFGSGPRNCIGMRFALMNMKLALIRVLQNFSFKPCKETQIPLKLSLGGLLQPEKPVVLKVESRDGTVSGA
Description: as §2

[10] = target: CYP2D6 (Homo sapiens, UniProt P10635); test: CYP inhibition; type: in vitro ADME
Sequence of CYP2D6 (P10635 whole entry): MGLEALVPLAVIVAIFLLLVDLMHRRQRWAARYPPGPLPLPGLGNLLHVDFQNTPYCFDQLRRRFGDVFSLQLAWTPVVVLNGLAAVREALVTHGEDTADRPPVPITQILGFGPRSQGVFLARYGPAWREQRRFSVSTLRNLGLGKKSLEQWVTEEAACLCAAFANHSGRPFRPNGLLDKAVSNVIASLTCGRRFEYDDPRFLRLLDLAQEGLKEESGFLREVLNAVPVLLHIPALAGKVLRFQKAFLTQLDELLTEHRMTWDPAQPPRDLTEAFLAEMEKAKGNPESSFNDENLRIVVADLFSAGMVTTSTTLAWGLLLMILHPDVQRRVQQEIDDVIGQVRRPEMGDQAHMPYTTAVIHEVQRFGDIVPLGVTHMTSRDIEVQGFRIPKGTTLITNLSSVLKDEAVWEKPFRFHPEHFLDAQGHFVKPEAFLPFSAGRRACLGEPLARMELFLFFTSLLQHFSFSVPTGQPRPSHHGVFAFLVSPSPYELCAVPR
Description: as §2

[11] = test system: M. tuberculosis Erdman; test: in vivo acute M.tb Erdman infection mouse model; parameters: species or system Mycobacterium tuberculosis; conditions: BALB/c mice

SMILES: O=[N+]([O-])c1cc(C(F)(F)F)cc2c(=S)nc(N3CCC4(CC3)OCCO4)sc12 [SKLB-TB1001, 8-nitro-2-(1,4-dioxa-8-azaspiro[4.5]decan-8-yl)-6-(trifluoromethyl)-4H-benzo[e][1,3]thiazine-4-thione]
- Log10 CFU, intracellular Mtb Erdman ([1]; J774A.1 macrophages, 0.02 μM (Fig. 2 legend: 0.02 μg/mL), 7 days): 4.77
- Fold(log) reduction [1]: 2.08 log
- Fold(log) reduction ([1]; listed as SKLB-1001): 2.1 log
- MIC [2]: < 0.1 µM
- MIC [3]: 0.02 µg/mL (≈ 0.0461 µM)
- IC50 ([4]; Vero, cytotoxicity, read-out: IC50 Vero): > 100 µg/mL
- IC50 ([4]; cytotoxicity on Vero cells, read-out: IC50): > 20 µM
- bioavailability ([5]; oral, AUC (p.o., 5 mg/kg)/AUC(i.v., 5 mg/kg), read-out: F, absolute oral bioavailability): 44.4%
- half-life ([5]; po, 5 mg/kg, terminal half-life for elimination): 1.45 h
- AUC ([5]; po, p.o., 5 mg/kg, t = 0 to infinity, read-out: AUC): 847 ng·h/mL
- Tmax ([5]; po, p.o., 5 mg/kg, read-out: Tmax): 1.13 h
- Cmax ([5]; po, p.o., 5 mg/kg, read-out: Cmax): 193 ng/mL
- Papp A→B [6]: 6.96 ×10⁻⁶ cm/s
- Papp B→A [6]: 7.27 ×10⁻⁶ cm/s
- efflux ratio [6]: 1.04
- IC50 [7]: > 10 µM
- IC50 [8]: > 10 µM
- IC50 [9]: > 10 µM
- IC50 [10]: > 10 µM
- reduction of M.tb CFU in lungs compared to the vehicle group ([11]; 150 mg/kg daily for 4 weeks): 3.4 logs
- reduction of M.tb CFU in lungs compared to treatment initiation ([11]; 150 mg/kg daily for 4 weeks): 0.87 logs
- Log10 CFU (SD), bacterial burden in mouse lungs ([11]; Day-36, 150 mg/kg oral daily from day 10): 2.84 (2.93)
